Our source for the IC50 values is ChEMBL document CHEMBL3580588, “Inhibitors of the PAR-2 Signaling Pathway May Treat Pain and Inflammation” (ACS Med Chem Lett, 2015).

Molecules are shown by their SMILES.

The assay deals with Proteinase-activated receptor 1 (Homo sapiens) (UniProt P25116). The assay can be described thus: Antagonist activity against PAR1 in human HT29 cells assessed as inhibition of thrombin-induced Ca2+ responses pre-incubated for 30 mins before thrombin stimulation by FLIPR assay.
Proteinase-activated receptor 1 (Homo sapiens), sequence (P25116 whole entry, looked up): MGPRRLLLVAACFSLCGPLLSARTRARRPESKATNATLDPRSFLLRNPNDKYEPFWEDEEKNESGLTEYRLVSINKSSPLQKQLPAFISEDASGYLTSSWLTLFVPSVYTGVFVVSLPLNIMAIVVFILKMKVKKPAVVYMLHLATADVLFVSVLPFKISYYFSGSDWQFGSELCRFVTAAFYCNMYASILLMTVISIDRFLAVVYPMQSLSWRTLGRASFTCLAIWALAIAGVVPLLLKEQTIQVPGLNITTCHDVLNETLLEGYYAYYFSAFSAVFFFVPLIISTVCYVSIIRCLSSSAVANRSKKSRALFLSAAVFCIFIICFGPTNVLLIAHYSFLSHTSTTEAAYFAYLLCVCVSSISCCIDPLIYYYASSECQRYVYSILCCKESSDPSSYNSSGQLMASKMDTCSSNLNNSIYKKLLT
For `CCOC(=O)[C@H]1CCCN(C(=O)c2cn3nc(-c4ccc(F)cc4)cc(C(F)(F)F)c3n2)[C@@H]1C`, the IC50 worked out at 5.5 µM. Regarding `CC(C)(C)OC(=O)N1CCN(C(=O)c2cn3nc(-c4ccc(F)cc4)cc(C(C)(C)C)c3n2)C(C)(C)C1`, the IC50 is greater than 50 µM.

`CC(C)c1cc(-c2ccc(F)cc2)nn2cc(C(=O)N3CCN(C(=O)Cc4ccsc4)[C@@H](C)C3)nc12`: the IC50 is greater than 0.5 µM.
